Laboratory results published in the OPERA property sets (Mansouri et al. 2018).
Values after ≈ are worked out from the molar mass of the structure shown.

Details: 25 °C

solubility	SMILES
90800 µM (≈ 3640 µg/mL)	C#CC
4750 µM (≈ 200 µg/mL)	C=CC
499 µM (≈ 42 µg/mL)	CC1CCCC1
3940 µM (≈ 221 µg/mL)	C=CCC
1050 µM (≈ 61.2 µg/mL)	CCCC

Second part, the molecule before the results:

SMILES	solubility
CCCCCC	110 µM (≈ 9.5 µg/mL)
C=C	4670 µM (≈ 131 µg/mL)
Cc1ccc(C)c(C)c1	474 µM (≈ 57 µg/mL)
C=CC=C	13600 µM (≈ 735 µg/mL)
C=CC(=C)C	9340 µM (≈ 636 µg/mL)
C1CCCCCCC1	70.4 µM (≈ 7.9 µg/mL)
C1CCCCC1	654 µM (≈ 55 µg/mL)
